The target of experiment [1] is T1, recombinant human soluble COMT (S-COMT) (Homo sapiens, UniProt P21964).
T1 sequence (P21964 1-221 isoform P21964-2): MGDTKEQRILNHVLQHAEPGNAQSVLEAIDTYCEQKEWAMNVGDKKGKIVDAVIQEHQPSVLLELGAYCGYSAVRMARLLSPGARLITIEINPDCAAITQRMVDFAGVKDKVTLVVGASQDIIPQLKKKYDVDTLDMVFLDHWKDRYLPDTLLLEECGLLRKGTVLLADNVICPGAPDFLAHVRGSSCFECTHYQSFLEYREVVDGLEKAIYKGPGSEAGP
Description: COMT inhibiting activity in vitro, Assay 1 (fluorescence plate reader). Format: biochemical. The settings on record: Assay 1: 12 nM S-COMT, 60 min preincubation at 37° C., substrate esculetin, Morrison equation. As for the experimental part:
The inhibitory potency was determined by measuring recombinant human soluble COMT (S-COMT) activity at various compound concentrations. COMT activity measurements were performed according to the method published in Kurkela, M. et al. Analytical Biochemistry, 331 (2004) 198 with slight modifications according to Assay 1 or Assay 2 described below.
Recombinant human S-COMT (12 nM) was preincubated with the COMT inhibitor and 400 μM S-adenosyl-L-methionine in 100 mM Na2HPO4 buffer, pH 7.4, containing 5 mM MgCl2 for 60 min at 37° C. The reaction was started with the addition of the substrate esculetin for a final concentration of […] and the production of O-methylated esculetin was followed with the FlexStation fluorescence plate reader ([…], USA) using excitation at 355 nm and emission at 460 nm. The inhibitor dissociation constant, Ki, of the studied compounds was calculated using the Morrison equation, which takes the tight binding inhibition into account (Copeland, R. A. Evaluation of Enzyme Inhibitors in Drug Discovery. A Guide for Medicinal Chemists and Pharmacologists, John Wiley & Sons, Inc., Hoboken, N.J., 2005, pp. 185-187):
[formula] wherein v0 and vi are the reaction velocities in the absence and presence, respectively, of the inhibitor, E is the active enzyme concentration, and I is the inhibitor concentration. The data were analyzed with GraphPad Prism version 4.00 software (GraphPad Software, San Diego, Calif., USA). Assay 2

The nature of experiment [2]: Determination of levodopa concentration in rat plasma. In kind it is in vivo. The settings on record: entacapone = 1.00, adult male Wistar rats, COMT inhibitor dosed orally with levodopa+carbidopa. As for the experimental part: Levodopa concentration in rat plasma was determined substantially as described in e.g. Kim, T. K. et al. European Journal of Pharmaceutical Sciences, 38 (2009) 525. The studies were performed in adult male Wistar rats. The COMT inhibitor was dosed orally over a range of doses and several sampling time points were chosen between 0 min and 300 min after drug administration (levodopa+carbidopa and COMT inhibitor). Blood samples were collected by cardiac puncture under CO2 anaesthesia into pre-cooled K2EDTA tubes and kept on ice until the separation of plasma by centrifugation. For levodopa analysis, 75 μl of separated plasma was pipetted without delay into pre-cooled polypropylene tubes containing a conserving agent. All the samples were stored at −80° C. nominal until analyzed. Plasma levels of levodopa were determined by LC-MS/MS (or HPLC). Standard pharmacokinetic methods were used to evaluate the concentration—time data by non-compartmental analysis modeling. The analyses were performed using WinNonlin® Professional v. 5.0.1.

The text below walks through data of patent publication US9458128B2, “Catechol O-methyltransferase activity inhibiting compounds” (Orion Corporation, priority 2012, dated 2016).

Take `CC(C)S(=O)(=O)c1ccc(-c2c(C#N)cc(O)c(O)c2C#N)cc1` [Example 23, 3,4-Dihydroxy-4′-(isopropylsulfonyl)biphenyl-2,6-dicarbonitrile]: in experiment [1], the Ki (commonly a dissociation constant, usually derived from enzyme kinetics or from competition with a known ligand) turned out to be 190 pM. In addition, in experiment [2], the Relative levodopa concentration came out at 1.34. With `N#Cc1cc(O)c(O)c(C#N)c1Cc1ccc(F)cc1` [Example 55, 2-(4-Fluorobenzyl)-4,5-dihydroxyisophthalonitrile], the Relative levodopa concentration in experiment [2] is reported as 1.31.
